The numbers were not newly measured in US9173940B1, “Mixture of betamethasone and tranilast with a transdermal gel for scar treatment” (PROFESSIONAL COMPOUNDING CENTERS OF AMERICA (PCCA), priority 2014, dated 2015), which cites them from elsewhere.

Molecules are shown by their SMILES.

For this data set the following is noted: taken orally.

Turning to `COc1ccc(/C=C/C(=O)Nc2ccccc2C(=O)O)cc1OC` [Tranilast], the oral absorption entry is reported as “well-absorbed”.
